The target of experiment [1] is a7nAChR (Mus musculus, UniProt P49582). The text has this: (§1) To confirm platelet a7nAChR modulates hemostasis, we first administered the pharmacological a7nAChR agonist nicotine to wild-type mice before tail injury. […] To restrict a7nAChR to platelets, we transferred platelets from wild-type or a7KO donor mice into a7nAChR-deficient animals before tail transection.
(§2) Mice are screened before study inclusion to ensure visual similarity and consistency between the anatomy of the tail tips and the site of transection. […] Following vagus nerve stimulation or sham surgery, tails are immersed in water at 37+1° C. for five minutes. Tails are then removed from the solution, amputated 2 mm from the tip with a razor blade, and immediately placed into a 50 mL beaker containing water at 37+1° C. Tails are allowed to bleed uncontrolled until bleeding stops for a minimum of ten seconds. This duration of bleeding is recorded as bleeding time. For analyses of bleeding in factor VIII deficient mice, tails are first immersed in 0.9% saline at 37±1° C. for five minutes. Tails are then removed and amputated 2 mm from the tip with a razor blade. Tails are then placed into a 50 mL conical tube containing 0.9% saline at 37±1° C. Tails are allowed to bleed freely for a total of ten minutes. Total blood loss is determined by densitometry by measuring absorbance at 550 nm. A standard curve is created from a known volume of blood.

The test system of experiment [2] is a7nAChR.
Source text: as §1, §2

Read-outs that look alike come from different tables or passages of the source.

a7nAChR (Mus musculus, UniProt P49582), sequence (P49582 23-502): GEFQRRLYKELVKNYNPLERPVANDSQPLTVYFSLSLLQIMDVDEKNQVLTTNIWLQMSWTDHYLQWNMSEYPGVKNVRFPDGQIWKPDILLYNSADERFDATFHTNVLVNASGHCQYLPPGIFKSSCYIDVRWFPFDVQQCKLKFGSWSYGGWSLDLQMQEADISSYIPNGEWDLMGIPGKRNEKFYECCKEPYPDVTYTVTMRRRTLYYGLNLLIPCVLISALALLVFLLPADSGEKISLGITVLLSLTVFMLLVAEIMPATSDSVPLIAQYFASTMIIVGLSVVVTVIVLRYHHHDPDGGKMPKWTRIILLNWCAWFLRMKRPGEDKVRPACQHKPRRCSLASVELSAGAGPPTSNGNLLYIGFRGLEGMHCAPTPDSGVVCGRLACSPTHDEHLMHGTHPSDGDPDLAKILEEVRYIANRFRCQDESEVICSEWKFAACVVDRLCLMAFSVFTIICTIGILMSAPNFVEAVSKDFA

`CN1CCCC1c1cccnc1` (stereo not shown) [nicotine]: the “bleeding time as compared with vehicle treatment” value on a7nAChR [1] (a7nAChR-deficient mice reconstituted with wild-type platelets, FIG. 2H, p<0.05 vs. vehicle control) is “significantly reduces bleeding time”; on a7nAChR [1] (wild-type mice, nicotine before tail injury, FIG. 2G, p<0.01 vs. vehicle control), “significantly decreases bleeding time”; in the experiment with a7nAChR [2] (a7nAChR-deficient mice receiving platelets from a7KO donors, FIG. 2H), “not”; in the experiment with a7nAChR [2] (a7nAChR-deficient mice, nicotine before tail transection, FIG. 2G) it was “fails to reduce bleeding time”.
